These results are taken from ChEMBL document CHEMBL1150109, “New cytotoxic coumarins and prenylated benzophenone derivatives from the bark of Ochrocarpos punctatus from the Madagascar rainforest” (J Nat Prod, 2002).

≈ marks a conversion by molar mass, not a printed value.

This test has as its system A2780. As to the kind of experiment: Cytotoxicity against human A2780 cells. The test is classed as functional, cell-based.
For the molecule `CCC(C)C(=O)c1c2c(c3oc(=O)cc(-c4ccccc4)c3c1O)CC(C(C)(C)O)O2` (stereo unspecified), the IC50 was 8.2 µg/mL (≈ 19.4 µM). Take `CC(C)CC(=O)c1c2c(c3oc(=O)cc(-c4ccccc4)c3c1O)CC(C(C)(C)O)O2` (stereo unspecified): the IC50 was 6.4 µg/mL (≈ 15.1 µM). With `CCC(C)C(=O)c1c2c(c3oc(=O)cc(-c4ccccc4)c3c1O)C=CC(C)(C)O2` (stereo unspecified) the figure was 4.5 µg/mL (≈ 11.1 µM); with `CCCC(=O)c1c2c(c3oc(=O)cc(-c4ccccc4)c3c1O)CC(C(C)(C)O)O2` (stereo unspecified), 4.4 µg/mL (≈ 10.8 µM); with `CC(C)=CCC1CC2(CC=C(C)C)C(=O)C3=C(OC(C)(C)C(OO)C3)C(C(=O)c3ccccc3)(C2=O)C1(C)C` (stereo unspecified), 8.4 µg/mL (≈ 15.7 µM). With `CCC(OC(C)=O)c1cc(=O)oc2c3c(c(C(=O)[C@@H](C)CC)c(O)c12)OC(C(C)(C)O)C3` (single isomer, unassigned) [OCHROCARPIN G] the figure was 8.6 µg/mL (≈ 19.3 µM); with `CC(C)C(=O)c1c2c(c3oc(=O)cc(-c4ccccc4)c3c1O)C=CC(C)(C)O2` [MESUAGIN], 10.8 µg/mL (≈ 27.7 µM); with `CC[C@H](C)C(=O)c1c(O)c2c(-c3ccccc3)cc(=O)oc2c2cc(C(C)(C)O)oc12` [OCHROCARPIN A], 5.2 µg/mL (≈ 12.4 µM). Regarding `CC(C)CC(=O)c1c(O)c2c(-c3ccccc3)cc(=O)oc2c2cc(C(C)(C)O)oc12` [OCHROCARPIN B], half-maximal inhibition (IC50) was put at 3.8 µg/mL (≈ 9.04 µM).

As to `CC(C)C(=O)c1c(O)c2c(-c3ccccc3)cc(=O)oc2c2cc(C(C)(C)O)oc12` [OCHROCARPIN C], it took 3.7 µg/mL (≈ 9.1 µM) to reach half-maximal inhibition (IC50). The molecule `CC[C@H](C)C(=O)c1c(O)c2c(-c3ccccc3)cc(=O)oc2c2cc(C(C)(C)OC)oc12` [OCHROCARPIN D] displayed an IC50 of 6.3 µg/mL (≈ 14.5 µM). This IC50 is about 1.7-fold higher than that of the molecule before. The molecule `CC(C)C(=O)c1c(O)c2c(c3c(-c4ccccc4)cc(=O)oc13)OC(C(C)(C)O)C2` (stereo unspecified) [OCHROCARPIN E] displayed an IC50 of 4.9 µg/mL (≈ 12 µM). Consider `CC[C@H](C)C(=O)c1c2c(c3oc(=O)cc([C@@H](CC)OC(C)=O)c3c1O)CC(C(C)(C)O)O2` (stereo partly specified) [OCHROCARPIN F], for which the midpoint of inhibition, the IC50, lay at 8.9 µg/mL (≈ 19.9 µM). As to `CC(C)=CCC1CC2(CC=C(C)C)C(=O)C(C(=O)c3ccccc3)(C(=O)C3=C2OC(C)(C)C(OO)C3)C1(C)C` (stereo unspecified) [OCHROCARPINONE A], the IC50 is 6.9 µg/mL (≈ 12.9 µM). With `CC(C)=CCC1CC2(CC=C(C)C)C(=O)C3=C(OC(C(C)(C)O)C3)C(C(=O)c3ccccc3)(C2=O)C1(C)C` (stereo unspecified) [OCHROCARPINONE B], the half-inhibitory concentration (IC50) is 7.4 µg/mL (≈ 14.3 µM). `CC(C)=CCC1CC2(CC=C(C)C)C(=O)C(C(=O)c3ccccc3)(C(=O)C3=C2OC(C(C)(C)O)C3)C1(C)C` (stereo unspecified) [OCHROCARPINONE C] had an IC50 of 8.2 µg/mL (≈ 15.8 µM).
